In US8563505B2, “Hepatitis C virus inhibitors” (priority 2008, dated 2013):

Key:
[1] = test system: HCV replicon in HUH-7 cells; test: HCV replicon assay (FRET, confirmed by luciferase reporter); assay type: cell-based, Hepatitis C virus (strain 1b); conditions: Hepatitis C virus, 96 h, HUH-7 replicon cells, 4 days
Text: An HCV replicon whole cell system was established as described by Lohmann V, Korner F, Koch J, Herian U, Theilmann L, Bartenschlager R., Science 285(5424):110-3 (1999). This system enabled us to evaluate the effects of our HCV Protease compounds on HCV RNA replication. Briefly, using the HCV strain 1b sequence described in the Lohmann paper (Assession number: AJ238799), an HCV cDNA was synthesized by Operon Technologies, Inc. (Alameda, Calif.), and the full-length replicon was then assembled in plasmid pGem9zf(+) (Promega, Madison, Wis.) using standard molecular biology techniques. The replicon consists of (i) the HCV 5′ UTR fused to the first 12 amino acids of the capsid protein, (ii) the neomycin phosphotransferase gene (neo), (iii) the IRES from encephalomyocarditis virus (EMCV), and (iv) HCV NS3 to NS5B genes and the HCV 3′ UTR. Plasmid DNAs were linearized with Seal and RNA transcripts were synthesized in vitro using the T7 MegaScript transcription kit (Ambion, Austin, Tex.) according to manufacturer's directions. In vitro transcripts of the cDNA were transfected into the human hepatoma cell line, HUH-7. […] Resulting cell lines were characterized for positive and negative strand RNA production and protein production over time.
The HCV replicon FRET assay was developed to monitor the inhibitory effects of compounds described in the disclosure on HCV viral replication. HUH-7 cells, constitutively expressing the HCV replicon, were grown in Dulbecco's Modified Eagle Media (DMEM) (Gibco-BRL) containing 10% Fetal calf serum (FCS) (Sigma) and 1 mg/ml G418 (Gibco-BRL). Cells were seeded the night before (1.5×10^4 cells/well) in 96-well tissue-culture sterile plates. Compound and no compound controls were prepared in DMEM containing 4% FCS, 1:100 Penicillin/Streptomysin (Gibco-BRL), 1:100 L-glutamine and 5% DMSO in the dilution plate (0.5% DMSO final concentration in the assay). Compound/DMSO mixes were added to the cells and incubated for 4 days at 37° C. After 4 days, cells were first assessed for cytotoxicity using alamar Blue (Trek Diagnostic Systems) for a CC50 reading. The toxicity of compound (CC50) was determined by adding 1/10th volume of alamar Blue to the media incubating the cells. After 4 h, the fluorescence signal from each well was read, with an excitation wavelength at 530 nm and an emission wavelength of 580 nm, using the Cytofluor Series 4000 (Perspective Biosystems). Plates were then rinsed thoroughly with Phosphate-Buffered Saline (PBS) (3 times 150 μl).
As a secondary assay, EC50 determinations from the replicon FRET assay were confirmed in a replicon luciferase reporter assay. Utilization of a replicon luciferase reporter assay was first described by Krieger et al (Krieger N, Lohmann V, and Bartenschlager R, J. Viral. 75(10):4614-4624 (2001)). The replicon construct described for our FRET assay was modified by inserting cDNA encoding a humanized form of the Renilla luciferase gene and a linker sequence fused directly to the 3′-end of the luciferase gene. This insert was introduced into the replicon construct using an Asc1 restriction site located in core, directly upstream of the neomycin marker gene. The adaptive mutation at position 1179 (serine to isoleucine) was also introduced (Blight K J, Kolykhalov, A A, Rice, C M, Science 290(5498):1972-1974). A stable cell line constitutively expressing this HCV replicon construct was generated as described above. The luciferase reporter assay was set up as described for the HCV replicon FRET assay with the following modifications. Following 4 days in a 37° C./5% CO2 incubator, cells were analyzed for Renilla Luciferase activity using the Promega Dual-Glo Luciferase Assay System. Media (100 μl) was removed from each well containing cells. To the remaining 50 μl of media, 50 μl of Dual-Glo Luciferase Reagent was added, and plates rocked for 10 min to 2 h at room temperature. […]

[2] = biological target: T1, HCV NS3/4A protease complex (Hepatitis C virus genotype 1a, UniProt P27958, C1454S/C1711G); test: FRET peptide assay to monitor HCV NS3/4A proteolytic activity; assay type: biochemical; conditions: NS3/4A strain not stated
T1 construct: DNA encoding the recombinant HCV NS3/4A protease complex (amino acids 1027 to 1711) for these strains; inferred from pET21b vector and Ni-NTA purification) (C); made in house; host or cells: Escherichia coli BL21 (DE3), pET21b
T1 sequence (P27958 1027-1711 C1454S/C1711G, one chain of several): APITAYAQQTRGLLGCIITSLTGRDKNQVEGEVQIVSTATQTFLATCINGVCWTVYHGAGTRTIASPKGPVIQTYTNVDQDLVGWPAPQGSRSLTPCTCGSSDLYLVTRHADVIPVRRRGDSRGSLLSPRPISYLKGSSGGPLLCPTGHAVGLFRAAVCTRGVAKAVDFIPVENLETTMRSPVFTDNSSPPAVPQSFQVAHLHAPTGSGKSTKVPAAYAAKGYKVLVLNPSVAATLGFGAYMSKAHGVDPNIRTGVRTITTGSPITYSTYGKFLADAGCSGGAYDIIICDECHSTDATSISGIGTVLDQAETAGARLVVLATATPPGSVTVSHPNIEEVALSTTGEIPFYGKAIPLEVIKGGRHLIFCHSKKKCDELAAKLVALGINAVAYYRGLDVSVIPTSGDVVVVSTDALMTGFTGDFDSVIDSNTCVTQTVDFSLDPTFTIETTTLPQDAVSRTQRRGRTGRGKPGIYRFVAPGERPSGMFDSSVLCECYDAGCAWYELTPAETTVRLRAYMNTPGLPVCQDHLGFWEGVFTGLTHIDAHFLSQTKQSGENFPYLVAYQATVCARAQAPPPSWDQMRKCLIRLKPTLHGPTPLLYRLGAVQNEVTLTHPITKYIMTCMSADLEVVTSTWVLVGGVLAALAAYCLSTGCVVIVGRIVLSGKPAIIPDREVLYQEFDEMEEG
Text: HCV NS3 protease complexes, derived from the BMS strain, H77 strain or J4L6S strain, were generated, as described below. These purified recombinant proteins were generated for use in a homogeneous assay (see below) to provide an indication of how effective compounds of the present disclosure would be in inhibiting HCV NS3 proteolytic activity.
The H77 and J4L6S strains were used for production of recombinant NS3/4A protease complexes. DNA encoding the recombinant HCV NS3/4A protease complex (amino acids 1027 to 1711) for these strains was manipulated as described by P. Gallinari et al. (see Gallinari P, Paolini C, Brennan D, Nardi C, Steinkuhler C, De Francesco R. Biochemistry. 38(17):5620-32, (1999)). Briefly, a three-lysine solubilizing tail was added at the 3′-end of the NS4A coding region. The cysteine in the P1 position of the NS4A-NS4B cleavage site (amino acid 1711) was changed to a glycine to avoid the proteolytic cleavage of the lysine tag. Furthermore, a cysteine to serine mutation was introduced by PCR at amino acid position 1454 to prevent the autolytic cleavage in the NS3 helicase domain. The variant DNA fragment was cloned in the pET21b bacterial expression vector (Novagen) and the NS3/4A complex was expressed in Escherichia coli strain BL21 (DE3) (Invitrogen) following the protocol described by P. Gallinari et al. (see Gallinari P, Brennan D, Nardi C, Brunetti M, Tomei L, Steinkuhler C, De Francesco R., J Virol. 72(8):6758-69 (1998)) with modifications. Briefly, the NS3/4A protease complex expression was induced with 0.5 millimolar (mM) Isopropyl β-D-1-thiogalactopyranoside (IPTG) for 22 hours (h) at 20° C. A typical fermentation (1 Liter (L)) yielded approximately 10 grams (g) of wet cell paste. The cells were resuspended in lysis buffer (10 mL/g) consisting of 25 mM N-(2-Hydroxyethyl)Piperazine-N′-(2-Ethane Sulfonic acid) (HEPES), pH 7.5, 20% glycerol, 500 mM Sodium Chloride (NaCl), 0.5% Triton X-100, 1 microgram/milliliter ([…]) lysozyme, 5 mM Magnesium Chloride (MgCl2), 1 μg/ml DnaseI, 5 mM […] (βME), Protease inhibitor-Ethylenediamine Tetraacetic acid (EDTA) free (Roche), homogenized and incubated for 20 minutes (min) at 4° C. The homogenate was sonicated and clarified by ultra-centrifugation at 235000 g for 1 hour (h) at 4° C. Imidazole was added to the supernatant to a final concentration of 15 mM and the pH adjusted to 8.0. The crude protein extract was loaded on a Nickel-Nitrilotriacetic acid (Ni-NTA) column pre-equilibrated with buffer B (25 mM HEPES, pH 8.0, 20% glycerol, 500 mM NaCl, 0.5% Triton X-100, 15 mM imidazole, 5 mM βME). The sample was loaded at a flow rate of 1 mL/min. The column was washed with 15 column volumes of buffer C (same as buffer B except with 0.2% Triton X-100). The protein was eluted with 5 column volumes of buffer D (same as buffer C except with 200 mM Imidazole).
NS3/4A protease complex-containing fractions were pooled and loaded on a desalting column Superdex-S200 pre-equilibrated with buffer D (25 mM HEPES, pH 7.5, 20% glycerol, 300 mM NaCl, 0.2% Triton X-100, 10 mM (βME). Sample was loaded at a flow rate of 1 mL/min. NS3/4A protease complex-containing fractions were pooled and concentrated to approximately 0.5 mg/ml. The purity of the NS3/4A protease complexes, derived from the BMS, H77 and J4L6S strains, were judged to be greater than 90% by SDS-PAGE and mass spectrometry analyses. The enzyme was stored at −80° C., thawed on ice and diluted prior to use in assay buffer.
The purpose of this in vitro assay was to measure the inhibition of HCV NS3 protease complexes, derived from the BMS strain, H77 strain or J4L6S strain, as described above, by compounds of the present disclosure. This assay provides an indication of how effective compounds of the present disclosure would be in inhibiting HCV NS3 proteolytic activity.
In order to monitor HCV NS3/4A protease activity, an NS3/4A peptide substrate was used. […]

Row | Structure (SMILES) | EC50 ([1]; class symbols) | IC50 ([2]; class symbols) | EC50 ([1]; numeric values) | IC50 ([2]; numeric values)
1 | C=C[C@@H]1C[C@]1(NC(=O)[C@@H]1C[C@]2(OC)CN1C(=O)[C@H](C(C)(C)C)NC(=O)OCCC(C)(C)CCCc1cc(OC)ccc1-c1ccc2cc1)C(=O)NS(=O)(=O)C1CC1 [Example 10] | 5.5 to 10 nM | 1 to 3 nM | – | –
2 | COc1ccc2c(c1)CCCC(C)(C)CCOC(=O)N[C@@H](C(C)(C)C)C(=O)N1C[C@@](OC)(C[C@H]1C(=O)N[C@]1(C(=O)NS(=O)(=O)C3CC3)C[C@H]1C1CC1)c1ccc-2cc1 [Example 11] | 5.5 to 10 nM | 1 to 3 nM | – | –
3 | C=C[C@@H]1C[C@]1(NC(=O)[C@@H]1C[C@]2(OC)CN1C(=O)[C@H](C(C)(C)C)NC(=O)OCCCCCc1cc2ccc1-c1ccccc1)C(=O)NS(=O)(=O)C1CC1 [Example 9] | – | – | 26 nM | 4 nM
